Reference: patent US8354441B2, “Oxazoline derivatives” (Hoffmann-La Roche Inc., priority 2009, dated 2013)

How the values were obtained:
[1] = molecular target: T1, mouse TAAR1 (Mus musculus, UniProt Q923Y8); assay: TAAR1 radioligand binding with [3H]-rac-2-(1,2,3,4-tetrahydro-1-naphthyl)-2-imidazoline, membranes of stably transfected HEK293 cells; conditions: first value of the cell, read-out: Ki (μM) mouse/rat: mouse
T1 construct: expressed in transfected cells; host or cells: HEK293 (ATCC # CRL-1573), stably transfected with pIRESneo2 expression plasmid
Summary of the method: (§1)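 Competition binding: competitors spanning 10 pM–30 μM displace 60 nM [3H]-rac-2-(1,2,3,4-tetrahydro-1-naphthyl)-2-imidazoline from stably transfected HEK293 membranes (mouse or rat receptor), 30 min, 4 °C, pH 7.0 buffer with Mg2+/Ca2+. Bound label counted after GF/C filtration; 10 μM unlabelled ligand defines non-specific binding.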

[2] = molecular target: T2, rat TAAR1 (Rattus norvegicus, UniProt Q923Y9); assay: as above; conditions: second value of the cell, read-out: Ki (μM) mouse/rat: rat
T2 construct: expressed in transfected cells; host or cells: HEK293 (ATCC # CRL-1573), stably transfected with pIRESneo2 expression plasmid
Summary of the method: as §1

T2 sequence (Q923Y9 whole entry): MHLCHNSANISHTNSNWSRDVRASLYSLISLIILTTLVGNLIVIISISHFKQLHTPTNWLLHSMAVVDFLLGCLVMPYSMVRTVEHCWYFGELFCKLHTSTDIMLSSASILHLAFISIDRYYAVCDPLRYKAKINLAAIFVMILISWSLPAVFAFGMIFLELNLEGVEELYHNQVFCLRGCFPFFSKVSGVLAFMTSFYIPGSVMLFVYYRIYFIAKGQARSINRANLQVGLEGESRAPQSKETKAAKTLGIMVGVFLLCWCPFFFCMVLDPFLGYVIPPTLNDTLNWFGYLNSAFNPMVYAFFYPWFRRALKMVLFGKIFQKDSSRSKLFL
T1 sequence (Q923Y8 whole entry): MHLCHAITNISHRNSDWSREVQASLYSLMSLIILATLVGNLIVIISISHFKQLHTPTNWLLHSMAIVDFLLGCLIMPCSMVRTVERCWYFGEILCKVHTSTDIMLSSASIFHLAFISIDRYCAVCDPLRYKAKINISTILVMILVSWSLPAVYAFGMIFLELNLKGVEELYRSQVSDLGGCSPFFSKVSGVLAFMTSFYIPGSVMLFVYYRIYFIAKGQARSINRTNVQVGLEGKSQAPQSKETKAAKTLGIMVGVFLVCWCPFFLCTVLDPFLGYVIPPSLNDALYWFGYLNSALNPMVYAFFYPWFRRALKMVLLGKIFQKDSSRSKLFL

SMILES	Ki [1]	Ki [2]
NC1=N[C@@H](CCc2ccc(NC(=O)c3ncc(C(F)(F)F)cc3Cl)cc2)CO1 [Example 101, 3-Chloro-5-trifluoromethyl-pyridine-2-carboxylic acid {4-[2-((S)-2-amino-4,5-dihydro-oxazol-4-yl)-ethyl]-phenyl}-amide]	0.0007 µM	0.0021 µM
CC(C)(C)c1cc(C(=O)Nc2ccc(CC[C@H]3COC(N)=N3)cc2)ccn1 [Example 197, (S)-N-(4-(2-(2-Amino-4,5-dihydrooxazol-4-yl)ethyl)phenyl)-2-tert-butylisonicotinamide]	0.003 µM	0.0049 µM
Cc1cc(C)nc(C(=O)Nc2ccc(CC[C@H]3COC(N)=N3)cc2)c1 [Example 157, (S)-N-(4-(2-(2-Amino-4,5-dihydrooxazol-4-yl)ethyl)phenyl)-4,6-dimethylpicolinamide]	0.0019 µM	0.0006 µM
Cc1cc(Cl)cc(C(=O)Nc2ccc(CC[C@H]3COC(N)=N3)cc2)n1 [Example 156, (S)-N-(4-(2-(2-Amino-4,5-dihydrooxazol-4-yl)ethyl)phenyl)-4-chloro-6-methylpicolinamide]	0.0006 µM	0.0063 µM
CC(C(=O)Nc1ccc(CC[C@H]2COC(N)=N2)cc1)c1cccc(OC(F)(F)F)c1 (stereo partly drawn) [Example 82, N-{4-[2-((S)-2-Amino-4,5-dihydro-oxazol-4-yl)-ethyl]-phenyl}-2-(3-trifluoromethoxy-phenyl)-propionamide]	0.0005 µM	0.0017 µM
CCOc1ccc(CC(=O)Nc2ccc(CC[C@H]3COC(N)=N3)cc2)cc1 [Example 66, N-{4-[2-((S)-2-Amino-4,5-dihydro-oxazol-4-yl)-ethyl]-phenyl}-2-(4-ethoxy-phenyl)-acetamide]	0.0026 µM	0.0017 µM
NC1=N[C@@H](CCc2ccc(NC(=O)Cc3ccc(F)cc3)cc2)CO1 [Example 69, N-{4-[2-((S)-2-Amino-4,5-dihydro-oxazol-4-yl)-ethyl]-phenyl}-2-(4-fluoro-phenyl)-acetamide]	0.003 µM	0.0009 µM
NC1=N[C@@H](CCc2ccc(N3CCN(c4ccc(F)cc4)C3=O)cc2)CO1 [Example 56, 1-{4-[2-((S)-2-Amino-4,5-dihydro-oxazol-4-yl)-ethyl]-phenyl}-3-(4-fluoro-phenyl)-imidazolidin-2-one]	0.0094 µM	0.0009 µM
NC1=N[C@@H](CCc2ccc(NC(=O)Nc3ccc(Cl)c(Cl)c3)cc2)CO1 [Example 14, 1-{4-[2-((S)-2-Amino-4,5-dihydro-oxazol-4-yl)-ethyl]-phenyl}-3-(3,4-dichloro-phenyl)-urea]	0.0001 µM	0.0001 µM
NC1=NC(c2ccc(NC(=O)Nc3ccc(Cl)cc3)cc2)CO1 (racemic) [Example 1, (RS)-1-[4-(2-Amino-4,5-dihydro-oxazol-4-yl)-phenyl]-3-(4-chloro-phenyl)-urea]	0.0026 µM	0.0005 µM
C[C@@H]1OC(N)=N[C@H]1CCc1ccc(NC(=O)c2ccc(C(F)(F)F)cn2)cc1 [Example 226, 5-Trifluoromethyl-pyridine-2-carboxylic acid {4-[2-((4S,5S)-2-amino-5-methyl-4,5-dihydro-oxazol-4-yl)-ethyl]-phenyl}-amide]	0.0011 µM	0.0021 µM
Cc1ocnc1C(=O)Nc1ccc(CC[C@@H]2N=C(N)O[C@H]2C)cc1 [Example 222, 5-Methyl-oxazole-4-carboxylic acid {4-[2-((4S,5S)-2-amino-5-methyl-4,5-dihydro-oxazol-4-yl)-ethyl]-phenyl}-amide]	0.0071 µM	0.004 µM
CCc1cnc(C(=O)Nc2ccc(CC[C@@H]3N=C(N)O[C@H]3C)cc2)cn1 [Example 227, 5-Ethyl-pyrazine-2-carboxylic acid {4-[2-((4S,5S)-2-amino-5-methyl-4,5-dihydro-oxazol-4-yl)-ethyl]-phenyl}-amide]	0.007 µM	0.0059 µM
NC1=N[C@@H](CCc2ccc(NC(=O)C3CCCCC3)cc2)CO1 [Example 49, Cyclohexanecarboxylic acid {4-[2-((S)-2-amino-4,5-dihydro-oxazol-4-yl)-ethyl]-phenyl}-amide]	0.0024 µM	0.0036 µM
COc1cnc(C(=O)Nc2ccc(CC[C@H]3COC(N)=N3)cc2)cn1 [Example 127, (S)-N-(4-(2-(2-Amino-4,5-dihydrooxazol-4-yl)ethyl)phenyl)-5-methoxypyrazine-2-carboxamide]	0.0063 µM	0.0022 µM
COc1cc(C(=O)Nc2ccc(CC[C@H]3COC(N)=N3)cc2)nc(Cl)n1 [Example 231, 2-Chloro-6-methoxy-pyrimidine-4-carboxylic acid {4-[2-((S)-2-amino-4,5-dihydro-oxazol-4-yl)-ethyl]-phenyl}-amide]	0.0009 µM	0.0013 µM
NC1=N[C@@H](CCc2ccc(NC(=O)Nc3ncc(Cl)cn3)cc2)CO1 [Example 151, 1-{4-[2-((S)-2-Amino-4,5-dihydro-oxazol-4-yl)-ethyl]-phenyl}-3-(5-chloro-pyrimidin-2-yl)-urea]	0.0071 µM	0.0028 µM

SMILES	Ki [1]	Ki [2]
CC[C@@H](C[C@H]1COC(N)=N1)c1ccc(NC(=O)Nc2ccc(F)cc2)cc1 [Example 12, 1-{4-[(S)-1-((S)-2-Amino-4,5-dihydro-oxazol-4-ylmethyl)-propyl]-phenyl}-3-(4-fluoro-phenyl)-urea]	0.0012 µM	0.002 µM
Cc1ocnc1C(=O)Nc1ccc(CC[C@H]2COC(N)=N2)cc1 [Example 191, (S)-N-(4-(2-(2-Amino-4,5-dihydrooxazol-4-yl)ethyl)phenyl)-5-methyloxazole-4-carboxamide]	0.0042 µM	0.0021 µM
NC1=N[C@@H](CCc2ccc(NC(=O)C3CCC3)cc2)CO1 [Example 45, Cyclobutanecarboxylic acid {4-[2-((S)-2-amino-4,5-dihydro-oxazol-4-yl)-ethyl]-phenyl}-amide]	0.0026 µM	0.0017 µM
NC1=N[C@@H](CCc2ccc(NC(=O)CCC3CC3)cc2)CO1 [Example 170, (S)-N-(4-(2-(2-Amino-4,5-dihydrooxazol-4-yl)ethyl)phenyl)-3-cyclopropylpropanamide]	0.0074 µM	0.0018 µM
NC1=N[C@@H](CCc2ccc(NC(=O)C3CCC(F)(F)CC3)cc2)CO1 [Example 40, 4,4-Difluoro-cyclohexanecarboxylic acid {4-[2-((S)-2-amino-4,5-dihydro-oxazol-4-yl)-ethyl]-phenyl}-amide]	0.0036 µM	0.0187 µM
Cc1cc(C(=O)Nc2ccc(CC[C@H]3COC(N)=N3)cc2)sc1C [Example 202, (S)-N-(4-(2-(2-Amino-4,5-dihydrooxazol-4-yl)ethyl)phenyl)-4,5-dimethylthiophene-2-carboxamide]	0.0007 µM	0.0004 µM
NC1=N[C@@H](CCc2ccc(NC(=O)c3ccnc(-c4ccncc4)c3)cc2)CO1 [Example 199, (S)-N-(4-(2-(2-Amino-4,5-dihydrooxazol-4-yl)ethyl)phenyl)-2,4′-bipyridine-4-carboxamide]	0.0027 µM	0.0037 µM
NC1=N[C@@H](CCc2ccc(NC(=O)c3ccc(F)cn3)cc2)CO1 [Example 96, (S)-N-(4-(2-(2-amino-4,5-dihydrooxazol-4-yl)ethyl)phenyl)-5-fluoropicolinamide]	0.001 µM	0.0006 µM
CC(C)(C(=O)Nc1ccc(CC[C@H]2COC(N)=N2)cc1)c1ccc(Cl)cc1 [Example 72, N-{4-[2-((S)-2-Amino-4,5-dihydro-oxazol-4-yl)-ethyl]-phenyl}-2-(4-chloro-phenyl)-isobutyramide]	0.0008 µM	0.001 µM
COc1ccc(C(=O)Nc2ccc(CC[C@H]3COC(N)=N3)cc2)nc1Cl [Example 168, (S)-N-(4-(2-(2-Amino-4,5-dihydrooxazol-4-yl)ethyl)phenyl)-6-chloro-5-methoxypicolinamide]	0.0014 µM	0.0009 µM
Cc1ccc(C(=O)Nc2ccc(CC[C@H]3COC(N)=N3)cc2)cn1 [Example 98, N-{4-[2-((S)-2-Amino-4,5-dihydro-oxazol-4-yl)-ethyl]-phenyl}-6-methyl-nicotinamide]	0.0068 µM	0.0019 µM
NC1=N[C@@H](CCc2ccc(NC(=O)c3cncc(F)c3)cc2)CO1 [Example 100, N-{4-[2-((S)-2-Amino-4,5-dihydro-oxazol-4-yl)-ethyl]-phenyl}-5-fluoro-nicotinamide]	0.004 µM	0.0018 µM
Cc1cc(C(=O)Nc2ccc(CC[C@H]3COC(N)=N3)cc2)ncc1Cl [Example 155, (S)-N-(4-(2-(2-Amino-4,5-dihydrooxazol-4-yl)ethyl)phenyl)-5-chloro-4-methylpicolinamide]	0.0004 µM	0.0006 µM
NC1=N[C@@H](CCc2ccc(NC(=O)c3ccc(C(F)(F)F)nc3)cc2)CO1 [Example 55, N-{4-[2-((S)-2-Amino-4,5-dihydro-oxazol-4-yl)-ethyl]-phenyl}-6-trifluoromethyl-nicotinamide]	0.0025 µM	0.003 µM
COc1ccc(OC(=O)Nc2ccc(CC[C@H]3COC(N)=N3)cc2)cc1 [Example 147, {4-[2-((S)-2-Amino-4,5-dihydro-oxazol-4-yl)-ethyl]-phenyl}-carbamic acid 4-methoxy-phenyl ester]	0.0006 µM	0.0003 µM
CCc1nc(C(=O)Nc2ccc(CC[C@H]3COC(N)=N3)cc2)co1 [Example 217, (S)-N-(4-(2-(2-Amino-4,5-dihydrooxazol-4-yl)ethyl)phenyl)-2-ethyloxazole-4-carboxamide]	0.0051 µM	0.0025 µM
Cc1cc(C(=O)Nc2ccc(CC[C@H]3COC(N)=N3)cc2)ccn1 [Example 172, (S)-N-(4-(2-(2-Amino-4,5-dihydrooxazol-4-yl)ethyl)phenyl)-2-methylisonicotinamide]	0.0084 µM	0.0019 µM
